The values that follow are results of earlier work, collected in patent publication US11173114B1, “Method and system for manufacturing and oral soluble films and oral soluble films made by thereby” (NOVA Thin Film Pharmaceuticals LLC, priority 2020, dated 2021).

Each structure is given as a SMILES string. Like-named read-outs stand apart in the source and are kept apart here.

On to `O` [Water], for which the “Surface tension (head printed □)” value (25 ° C.) is 71.97 mN/m, the “Surface tension (head printed □)” value (40 ° C.) is recorded as 69.56 mN/m and the “Surface tension (head printed □)” value (80 ° C.) is listed as 62.6 mN/m.
